We go through 5 compounds from patent US20230111310A1, “CARBOXYLIC ACID DERIVATIVE-SUBSTITUTED IMINO ARYL COMPOUND, PREPARATION METHOD THEREFOR, HERBICIDAL COMPOSITION AND USE THEREOF” (Qingdao Kingagroot Chemical Compound Co., Ltd., priority 2020, published 2023).

Common to all, as to assay: Weeding effect in post-emergence stage
Type in all cases: in vivo
Common to all, as to details: level of fresh weight growth control rate

The subject of assay [1] is Echinochloa crusgalli. The gist of the method: (§1)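 Pot-grown greenhouse plants sprayed at 2–3 leaf stage, 2 weeks after sowing, with compound in acetone/Tween 80 plus methyl oleate emulsifiable concentrate (1.5 liter/ha) at 500–7.5 g/ha. Growth control rated 3 weeks after treatment; mean of three replicates.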
For assay [2], the system named is Alopecurus japonicus. In outline: as §1
In assay [3] the test system is Eleusine indica. In outline:
as §1

Assay [4] deals with Setaria viridis. The gist of the method:
as §1

Assay [5] relates to Abutilon theophrasti. In outline: as §1
Assay [6] deals with Digitaria sanguinalis. In outline: as §1

Take `CCCCOCCOC(=O)[C@@H](C)O/N=C/c1cc(-n2c(=O)cc(C(F)(F)F)n(C)c2=O)c(F)cc1Cl` [232(R)]: the “Weeding effect in post-emergence stage, Echinochloa crusgalli” value (“Weeding effect … Echinochloa crusgalli” for short) in assay [1] (Dose 15 g/ha) is recorded as 5 (Level 5: growth control rate is above 85%). For the same compound, the “Weeding effect in post-emergence stage, Alopecurus japonicus” value (“Weeding effect … Alopecurus japonicus” for short) in assay [2] (Dose 15 g/ha) is 5 (Level 5: growth control rate is above 85%). For the same compound, the “Weeding effect in post-emergence stage, Eleusine indica” value (“Weeding effect … Eleusine indica” below) in assay [3] (Dose 15 g/ha) is recorded as 5 (Level 5: growth control rate is above 85%). Besides, the “Weeding effect in post-emergence stage, Setaria viridis” value (from here on “Weeding effect … Setaria viridis”) in assay [4] (Dose 15 g/ha) is 5 (Level 5: growth control rate is above 85%). The “Weeding effect in post-emergence stage, Abutilon theophrasti” value (shortened to “Weeding effect … Abutilon theophrasti”) in assay [5] (Dose 15 g/ha) was 5 (Level 5: growth control rate is above 85%). Besides, the “Weeding effect in post-emergence stage, Digitaria sanguinalis” value (“Weeding effect … Digitaria sanguinalis” for short) in assay [6] (Dose 15 g/ha) is listed as 5 (Level 5: growth control rate is above 85%).

In the case of `CSCOC(=O)[C@@H](C)O/N=C/c1cc(-n2c(=O)cc(C(F)(F)F)n(C)c2=O)c(F)cc1Cl` [233(R)], the “Weeding effect … Echinochloa crusgalli” value in assay [1] (Dose 15 g/ha) was 5 (Level 5: growth control rate is above 85%). In addition, the “Weeding effect … Alopecurus japonicus” value in assay [2] (Dose 15 g/ha) was 5 (Level 5: growth control rate is above 85%). The “Weeding effect … Eleusine indica” value in assay [3] (Dose 15 g/ha) is 5 (Level 5: growth control rate is above 85%). For the same compound, the “Weeding effect … Setaria viridis” value in assay [4] (Dose 15 g/ha) is 5 (Level 5: growth control rate is above 85%). In assay [5] (Dose 15 g/ha), the “Weeding effect … Abutilon theophrasti” value is given as 5 (Level 5: growth control rate is above 85%). Also, the “Weeding effect … Digitaria sanguinalis” value in assay [6] (Dose 15 g/ha) is reported as 5 (Level 5: growth control rate is above 85%).

With `CSCCOC(=O)[C@@H](C)O/N=C/c1cc(-n2c(=O)cc(C(F)(F)F)n(C)c2=O)c(F)cc1Cl` [234(R)], the “Weeding effect … Echinochloa crusgalli” value in assay [1] (Dose 15 g/ha) was 5 (Level 5: growth control rate is above 85%). In assay [2] (Dose 15 g/ha), the “Weeding effect … Alopecurus japonicus” value is given as 5 (Level 5: growth control rate is above 85%). Moreover, the “Weeding effect … Eleusine indica” value in assay [3] (Dose 15 g/ha) is on record as 5 (Level 5: growth control rate is above 85%). For the same compound, in assay [4] (Dose 15 g/ha), the “Weeding effect … Setaria viridis” value is on record as 5 (Level 5: growth control rate is above 85%). Also, the “Weeding effect … Abutilon theophrasti” value in assay [5] (Dose 15 g/ha) is reported as 5 (Level 5: growth control rate is above 85%). Besides, the “Weeding effect … Digitaria sanguinalis” value in assay [6] (Dose 15 g/ha) is listed as 5 (Level 5: growth control rate is above 85%).

For the compound `CCCOC(=O)OC(=O)[C@@H](C)O/N=C/c1cc(-n2c(=O)cc(C(F)(F)F)n(C)c2=O)c(F)cc1Cl` [236(R)], the “Weeding effect … Echinochloa crusgalli” value in assay [1] (Dose 60 g/ha) was 5 (Level 5: growth control rate is above 85%). In addition, in assay [2] (Dose 60 g/ha), the “Weeding effect … Alopecurus japonicus” value was 5 (Level 5: growth control rate is above 85%). Besides, the “Weeding effect … Eleusine indica” value in assay [3] (Dose 60 g/ha) is on record as 5 (Level 5: growth control rate is above 85%). In assay [4] (Dose 60 g/ha), the “Weeding effect … Setaria viridis” value was 5 (Level 5: growth control rate is above 85%). For the same compound, the “Weeding effect … Abutilon theophrasti” value in assay [5] (Dose 60 g/ha) is 5 (Level 5: growth control rate is above 85%). The “Weeding effect … Digitaria sanguinalis” value in assay [6] (Dose 60 g/ha) was 5 (Level 5: growth control rate is above 85%).

Regarding `CC(=O)COC(=O)[C@@H](C)O/N=C/c1cc(-n2c(=O)cc(C(F)(F)F)n(C)c2=O)c(F)cc1Cl` [238(R)], the “Weeding effect … Echinochloa crusgalli” value in assay [1] (Dose 15 g/ha) is listed as 5 (Level 5: growth control rate is above 85%). Moreover, the “Weeding effect … Alopecurus japonicus” value in assay [2] (Dose 15 g/ha) was 5 (Level 5: growth control rate is above 85%). Besides, in assay [3] (Dose 15 g/ha), the “Weeding effect … Eleusine indica” value was 5 (Level 5: growth control rate is above 85%). In assay [4] (Dose 15 g/ha), the “Weeding effect … Setaria viridis” value is 5 (Level 5: growth control rate is above 85%). Besides, the “Weeding effect … Abutilon theophrasti” value in assay [5] (Dose 15 g/ha) is reported as 5 (Level 5: growth control rate is above 85%). Moreover, the “Weeding effect … Digitaria sanguinalis” value in assay [6] (Dose 15 g/ha) was 5 (Level 5: growth control rate is above 85%).
